Data: ChEMBL document CHEMBL3045908, “Phenolic and iridoid glycosides from the rhizomes of Cyperus rotundus L” (Med Chem Res, 2013)

System: RAW264.7
Test: Anti-inflammatory activity in Mus musculus (mouse) RAW264.7 cells assessed as inhibition of PMA-induced macrophages respiratory burst measured up to 30 min by chemiluminescence method
Format: functional, cell-based
Details: RAW264.7, 0.5 h

IC50 | Structure (SMILES)
78.7 µM | COC(=O)C1=CO[C@@H](O[C@@H]2O[C@H](CO[C@@H]3O[C@H](COC(=O)/C=C/c4ccc(O)cc4)[C@@H](O)[C@H](O)[C@H]3O)[C@@H](O)[C@H](O)[C@H]2O)[C@@H]2C(CO)=CC[C@H]12 [6'-O-P-COUMAROYLGENIPIN GENTIOBIOSIDE]
336 µM | COc1cc(/C=C/C(=O)O[C@H]2[C@H](O[C@@H]3O[C@H](CO)[C@@H](O)[C@H](O)[C@H]3O)[C@@H](O[C@@H]3OC[C@H](O)[C@H](O)[C@H]3O)[C@H](OCCc3ccc(O)c(O)c3)O[C@@H]2CO)ccc1O [CHIONOSIDE A]
355 µM | C[C@@H]1C[C@H]2[C@@H]3CCC4=CC(=O)C=C[C@]4(C)[C@@]3(F)[C@@H](O)C[C@]2(C)[C@@]1(O)C(=O)CO [DEXAMETHASONE]
320 µM | COc1cc(/C=C/C(=O)O[C@H]2[C@H](O[C@@H]3O[C@H](CO)[C@@H](O)[C@H](O)[C@H]3O)[C@@H](O[C@@H]3OC[C@H](O)[C@H](O)[C@H]3O)[C@H](OCCc3ccc(O)c(O)c3)O[C@@H]2CO[C@@H]2OC[C@H](O)[C@@H](O)[C@@H]2O)ccc1O [HELIOSIDE C]
308 µM | O=C(/C=C/c1ccc(O)cc1)OC[C@H]1O[C@@H](OCCc2ccc(O)c(O)c2)[C@H](O[C@@H]2OC[C@H](O)[C@H](O)[C@H]2O)[C@@H](O[C@@H]2O[C@H](CO)[C@@H](O)[C@H](O)[C@H]2O)[C@@H]1O [ISOARAGOSIDE]
217 µM | COC(=O)C1=CO[C@@H](O[C@@H]2O[C@H](CO)[C@@H](O)[C@H](O)[C@H]2O)[C@@H]2C(CO)=C[C@@H](OC[C@H]3O[C@@H](O[C@@H]4OC=C(C(=O)OC)[C@H]5C=C[C@](O)(CO)[C@@H]45)[C@H](O)[C@@H](O)[C@@H]3O)[C@H]12 [ROTUNDUSIDE A]
31.1 µM | COC(=O)C1=CO[C@@H](O[C@@H]2O[C@H](CO[C@@H]3O[C@H](COC(=O)/C=C/c4cc(O)c(O)c(O)c4)[C@@H](O)[C@H](O)[C@H]3O)[C@@H](O)[C@H](O)[C@H]2O)[C@@H]2C(CO)=CC[C@H]12 [ROTUNDUSIDE B]
15.1 µM | C[C@@H]1O[C@@H](OC[C@H]2O[C@@H](Oc3c(-c4ccc(O)c(O)c4)oc4cc(O)cc(O)c4c3=O)[C@H](O)[C@@H](O)[C@@H]2O)[C@H](O)[C@H](O)[C@H]1O [RUTIN]
